Test system: participants with SSc-RP
Assay: Frequency of weekly RP attacks (all attacks; primary efficacy endpoint)
Format: in vivo, human
Conditions: for Weekly RP Attacks, Q3 / Weekly RP Attacks Change from Baseline, Max / Weekly RP Attacks Change from Baseline, Mean / Weekly RP Attacks Change from Baseline, Median / Weekly RP Attacks Change from Baseline, Min / Weekly RP Attacks Change from Baseline, Q1 / Weekly RP Attacks Change from Baseline, Q3 / Weekly RP Attacks Percent Change from Baseline, Max / Weekly RP Attacks Percent Change from Baseline, Mean / Weekly RP Attacks Percent Change from Baseline, Median / Weekly RP Attacks Percent Change from Baseline, Min / Weekly RP Attacks Percent Change from Baseline, Q1 / Weekly RP Attacks Percent Change from Baseline, Q3 / Weekly RP Attacks, Max / Weekly RP Attacks, Mean / Weekly RP Attacks, Median / Weekly RP Attacks, Min / Weekly RP Attacks, Q1 / Weekly RP Attacks Change from Baseline, Mean (SD) / Weekly RP Attacks Percent Change from Baseline, Mean (SD) / Weekly RP Attacks, Mean (SD): all attacks, tadalafil 5 mg daily
Excerpt: Percent change from baseline evaluation for frequency of weekly RP attacks were or will be used as the primary efficacy variable. The sponsor-developed participant-informed diary will be used to record data. Frequency of weekly RP attacks is defined as the total number of RP attacks divided by the number of days with available diary data within the last 7 days of each dosing period then multiplied by 7. Total number of RP attacks during the last 7 days of screening period divided by the number of days with available data then multiplied by 7 will be used as baseline for the analysis of all periods. The variable will be calculated as follows:
Percentage change={(weekly RP attacks for the last 7 days of each dosing period−Baseline weekly RP attacks)/Baseline weekly RP attacks}*100%.
Absolute change=weekly RP attacks for the last 7 days of each dosing period−Baseline weekly RP attacks
Percent change from baseline evaluation for frequency of weekly RP attacks was and will be the primary efficacy endpoint. Frequency of weekly RP attacks is defined as the total number of RP attacks divided by the number of days with available diary data within the last 7 days of each dosing period then multiplied by 7. Total number of RP attacks during the last 7 days of screening period divided by the number of days with available data then multiplied by 7 will be used as baseline for the analysis of all periods.
Percent change from baseline evaluation for frequency of weekly RP attacks were the primary efficacy endpoint. Data collected in the last 7 days of each dosing period were used for this analysis. Screening assessments were used as baseline for the analysis of all periods. No multiple comparison adjustment were used to control alpha for the multiple comparisons. Mixed effects model were used for analysis of the primary endpoint according to the crossover design. Other efficacy endpoints of continuous variables were analyzed using similar methodology. For nominal data, chi-square tests were applied. Generalized Estimating Equations method were used, as appropriate, for adjusting for potential confounding factors. In addition, the final analysis assessed whether in this study of severe Raynaud's disease participants, the minimally important difference, previously concluded of 14-15 points on the 100 point RCS scale had been achieved in the cilnidipine dose group. It also recorded the percentage of participants achieving a PASS (34 point difference from baseline on a 0-100 VAS) in each treatment group.

[1] = by baseline RCS, first subgroup, cilnidipine 10 mg
[2] = by baseline RCS, first subgroup, cilnidipine 20 mg
[3] = by baseline RCS, first subgroup, pooled cilnidipine 10 mg and 20 mg
[4] = pooled cilnidipine 10 mg and 20 mg

COCCOC(=O)C1=C(C)NC(C)=C(C(=O)OC/C=C/c2ccccc2)C1c1cccc([N+](=O)[O-])c1 (stereo not shown) [Cilnidipine, cilnidipine]
Weekly RP Attacks, Q3 (excluding outliers, pooled cilnidipine 10 mg and 20 mg): 23.00 | Weekly RP Attacks Change from Baseline, Max [1]: −9.0, −9.0 | Weekly RP Attacks Change from Baseline, Mean [1]: −9.00 | Weekly RP Attacks Change from Baseline, Median [1]: −9.00 | Weekly RP Attacks Change from Baseline, Min [1]: −9.0, −9.0 | Weekly RP Attacks Change from Baseline, Q1 [1]: −9.00, −9.00 | Weekly RP Attacks Change from Baseline, Q3 [1]: −9.00, −9.00 | Weekly RP Attacks Percent Change from Baseline, Max [1]: −28.1, −28.1% | Weekly RP Attacks Percent Change from Baseline, Mean [1]: −28.13% | Weekly RP Attacks Percent Change from Baseline, Median [1]: −28.13% | Weekly RP Attacks Percent Change from Baseline, Min [1]: −28.1, −28.1% | Weekly RP Attacks Percent Change from Baseline, Q1 [1]: −28.13, −28.13% | Weekly RP Attacks Percent Change from Baseline, Q3 [1]: −28.13, −28.13% | Weekly RP Attacks, Max [1]: 23.0, 23.0 | Weekly RP Attacks, Mean [1]: 23.00 | Weekly RP Attacks, Median [1]: 23.00 | Weekly RP Attacks, Min [1]: 23.0, 23.0 | Weekly RP Attacks, Q1 [1]: 23.00, 23.00 | Weekly RP Attacks, Q3 [1]: 23.00, 23.00 | Weekly RP Attacks Change from Baseline, Max [2]: −4.3 | Weekly RP Attacks Change from Baseline, Mean [2]: −6.67 | Weekly RP Attacks Change from Baseline, Median [2]: −6.67 | Weekly RP Attacks Change from Baseline, Min [2]: −9.0 | Weekly RP Attacks Change from Baseline, Q1 [2]: −9.00 | Weekly RP Attacks Change from Baseline, Q3 [2]: −4.33 | Weekly RP Attacks Percent Change from Baseline, Max [2]: −45.0% | Weekly RP Attacks Percent Change from Baseline, Mean [2]: −45.71% | Weekly RP Attacks Percent Change from Baseline, Median [2]: −45.71% | Weekly RP Attacks Percent Change from Baseline, Min [2]: −46.4% | Weekly RP Attacks Percent Change from Baseline, Q1 [2]: −46.43% | Weekly RP Attacks Percent Change from Baseline, Q3 [2]: −45.00% | Weekly RP Attacks, Max [2]: 11.0 | Weekly RP Attacks, Mean [2]: 8.00 | Weekly RP Attacks, Median [2]: 8.00 | Weekly RP Attacks, Min [2]: 5.0 | Weekly RP Attacks, Q1 [2]: 5.00 | Weekly RP Attacks, Q3 [2]: 11.00 | Weekly RP Attacks Change from Baseline, Max [3]: −4.3 | Weekly RP Attacks Change from Baseline, Mean [3]: −7.44 | Weekly RP Attacks Change from Baseline, Median [3]: −9.00 | Weekly RP Attacks Change from Baseline, Min [3]: −9.0 | Weekly RP Attacks Change from Baseline, Q1 [3]: −9.00 | Weekly RP Attacks Change from Baseline, Q3 [3]: −4.33 | Weekly RP Attacks Percent Change from Baseline, Max [3]: −28.1% | Weekly RP Attacks Percent Change from Baseline, Mean [3]: −39.85% | Weekly RP Attacks Percent Change from Baseline, Median [3]: −45.00% | Weekly RP Attacks Percent Change from Baseline, Min [3]: −46.4% | Weekly RP Attacks Percent Change from Baseline, Q1 [3]: −46.43% | Weekly RP Attacks Percent Change from Baseline, Q3 [3]: −28.13% | Weekly RP Attacks, Max [3]: 23.0 | Weekly RP Attacks, Mean [3]: 13.00 | Weekly RP Attacks, Median [3]: 11.00 | Weekly RP Attacks, Min [3]: 5.0 | Weekly RP Attacks, Q1 [3]: 5.00 | Weekly RP Attacks, Q3 [3]: 23.00 | Weekly RP Attacks Change from Baseline, Max (cilnidipine 10 mg): −9.0, −9.0 | Weekly RP Attacks Change from Baseline, Mean (SD) (cilnidipine 10 mg): −9.00 | Weekly RP Attacks Change from Baseline, Median (cilnidipine 10 mg): −9.00 | Weekly RP Attacks Change from Baseline, Min (cilnidipine 10 mg): −9.0, −9.0 | Weekly RP Attacks Change from Baseline, Q1 (cilnidipine 10 mg): −9.00, −9.00 | Weekly RP Attacks Change from Baseline, Q3 (cilnidipine 10 mg): −9.00, −9.00 | Weekly RP Attacks Percent Change from Baseline, Max (cilnidipine 10 mg): −28.1, −28.1% | Weekly RP Attacks Percent Change from Baseline, Mean (SD) (cilnidipine 10 mg): −28.13% | Weekly RP Attacks Percent Change from Baseline, Median (cilnidipine 10 mg): −28.13% | Weekly RP Attacks Percent Change from Baseline, Min (cilnidipine 10 mg): −28.1, −28.1% | Weekly RP Attacks Percent Change from Baseline, Q1 (cilnidipine 10 mg): −28.13, −28.13% | Weekly RP Attacks Percent Change from Baseline, Q3 (cilnidipine 10 mg): −28.13, −28.13% | Weekly RP Attacks, Max (cilnidipine 10 mg): 23.0, 23.0 | Weekly RP Attacks, Mean (SD) (cilnidipine 10 mg): 23.00 | Weekly RP Attacks, Median (cilnidipine 10 mg): 23.00 | Weekly RP Attacks, Min (cilnidipine 10 mg): 23.0, 23.0 | Weekly RP Attacks, Q1 (cilnidipine 10 mg): 23.00, 23.00 | Weekly RP Attacks, Q3 (cilnidipine 10 mg): 23.00, 23.00 | Weekly RP Attacks Change from Baseline, Max (cilnidipine 20 mg): −4.3 | Weekly RP Attacks Change from Baseline, Mean (SD) (cilnidipine 20 mg): −6.67 (3.300) | Weekly RP Attacks Change from Baseline, Median (cilnidipine 20 mg): −6.67 | Weekly RP Attacks Change from Baseline, Min (cilnidipine 20 mg): −9.0 | Weekly RP Attacks Change from Baseline, Q1 (cilnidipine 20 mg): −9.00 | Weekly RP Attacks Change from Baseline, Q3 (cilnidipine 20 mg): −4.33 | Weekly RP Attacks Percent Change from Baseline, Max (cilnidipine 20 mg): −45.0% | Weekly RP Attacks Percent Change from Baseline, Mean (SD) (cilnidipine 20 mg): −45.71 (1.010) Percent | Weekly RP Attacks Percent Change from Baseline, Median (cilnidipine 20 mg): −45.71% | Weekly RP Attacks Percent Change from Baseline, Min (cilnidipine 20 mg): −46.4% | Weekly RP Attacks Percent Change from Baseline, Q1 (cilnidipine 20 mg): −46.43% | Weekly RP Attacks Percent Change from Baseline, Q3 (cilnidipine 20 mg): −45.00% | Weekly RP Attacks, Max (cilnidipine 20 mg): 11.0 | Weekly RP Attacks, Mean (SD) (cilnidipine 20 mg): 8.00 (4.243) | Weekly RP Attacks, Median (cilnidipine 20 mg): 8.00 | Weekly RP Attacks, Min (cilnidipine 20 mg): 5.0 | Weekly RP Attacks, Q1 (cilnidipine 20 mg): 5.00 | Weekly RP Attacks, Q3 (cilnidipine 20 mg): 11.00 | Weekly RP Attacks Change from Baseline, Max [4]: −4.3 | Weekly RP Attacks Change from Baseline, Mean (SD) [4]: −7.44 (2.694) | Weekly RP Attacks Change from Baseline, Median [4]: −9.00 | Weekly RP Attacks Change from Baseline, Min [4]: −9.0 | Weekly RP Attacks Change from Baseline, Q1 [4]: −9.00 | Weekly RP Attacks Change from Baseline, Q3 [4]: −4.33 | Weekly RP Attacks Percent Change from Baseline, Max [4]: −28.1% | Weekly RP Attacks Percent Change from Baseline, Mean (SD) [4]: −39.85 (10.180) Percent | Weekly RP Attacks Percent Change from Baseline, Median [4]: −45.00% | Weekly RP Attacks Percent Change from Baseline, Min [4]: −46.4% | Weekly RP Attacks Percent Change from Baseline, Q1 [4]: −46.43% | Weekly RP Attacks Percent Change from Baseline, Q3 [4]: −28.13% | Weekly RP Attacks, Max [4]: 23.0 | Weekly RP Attacks, Mean (SD) [4]: 13.00 (9.165) | Weekly RP Attacks, Median [4]: 11.00 | Weekly RP Attacks, Min [4]: 5.0 | Weekly RP Attacks, Q1 [4]: 5.00 | Weekly RP Attacks, Q3 [4]: 23.00 | reduction in weekly attack frequency (primary endpoint) (cilnidipine 20 mg, 19% with placebo): 43% | reduction in weekly attack frequency, typical attacks (pooled cilnidipine monotherapy or cilnidipine plus tadalafil treated patients (n=7)): −31 to −40% | Attacks reduced (summary of data (Table S)): 43%_vs 23% with

Source: patent US20240358693A1, “METHODS OF TREATING PAIN” (Aisa Pharma, Inc., priority 2023, published 2024)
